MIC data for one compound are collected here from US4416883A, “Penicillin derivatives” (Beecham Group Limited, priority 1980, dated 1983).

What all share (type): cell-based
Experiment [1] deals with Enterobacter cloacae N1. Description: MIC against Enterobacter cloacae N1. The following applies: AGAR. An excerpt:
(§1) | MIC values (μg/ml) of the compounds of Example 4b against | a number of organisms important in human infections

For experiment [2], the system named is B. subtilis. Description: MIC against B. subtilis. The settings on record: Bacillus subtilis, AGAR.
Excerpt: as §1

Experiment [3] concerns Staph. aureus Russell. Nature of the experiment: MIC against Staph. aureus Russell. The following applies: Staphylococcus aureus, AGAR.
Excerpt: as §1

Experiment [4] has as its system E. coli JT4. Nature of the experiment: MIC against E. coli JT4. The settings on record: Escherichia coli, AGAR.
Excerpt: as §1

Experiment [5] deals with Staph. aureus Oxford. Nature of the experiment: MIC against Staph. aureus Oxford. The following applies: Staphylococcus aureus.
Excerpt: as §1

Experiment [6] relates to Serratia marcescens US32. Description: MIC against Serratia marcescens US32. The settings on record: AGAR.
Excerpt: as §1

The test system of experiment [7] is β-Haemolytic Strep. CN10. Description: MIC against β-Haemolytic Strep. CN10. The following applies: AGAR.
Excerpt: as §1

The test system of experiment [8] is E. coli JT425. Nature of the experiment: MIC against E. coli JT425. The settings on record: Escherichia coli, AGAR.
Excerpt: as §1

The subject of experiment [9] is P. mirabilis 889. Nature of the experiment: MIC against P. mirabilis 889. The settings on record: Proteus mirabilis, AGAR.
Excerpt: as §1

Experiment [10] relates to E. coli NCTC 10418. Nature of the experiment: MIC against E. coli NCTC 10418. The settings on record: Escherichia coli.
Excerpt: as §1

Experiment [11] relates to P. mirabilis C977. Description: MIC against P. mirabilis C977. The settings on record: Proteus mirabilis, AGAR.
Excerpt: as §1

Experiment [12] concerns S. faecalis I. Description: MIC against S. faecalis I. The following applies: Enterococcus faecalis, AGAR.
Excerpt: as §1

The test system of experiment [13] is Klebsiella aerogenes A. Nature of the experiment: MIC against Klebsiella aerogenes A.
Excerpt: as §1

Experiment [14] concerns P. morganii. Nature of the experiment: MIC against P. morganii. The settings on record: Morganella morganii, AGAR.
Excerpt: as §1

The subject of experiment [15] is P. rettgeri. Nature of the experiment: MIC against P. rettgeri. The settings on record: Providencia rettgeri, AGAR.
Excerpt: as §1

Experiment [16] has as its system Ps aeruginosa 10662. Nature of the experiment: MIC against Ps aeruginosa 10662.
Excerpt: as §1

The subject of experiment [17] is Ps aeruginosa Dalgleish. Nature of the experiment: MIC against Ps aeruginosa Dalgleish. The following applies: AGAR; Ps aeruginosa Dalgleish 10^-2.
Excerpt: as §1

In general, MIC refers to the lowest concentration found to suppress growth. Low values mean a more susceptible organism, high ones a less susceptible organism.

On to `CCN1CCN(C(=O)N[C@@H](C(=O)N[C@@H]2C(=O)N3[C@@H](C(=O)O)CS[C@H]23)c2ccccc2)C(=O)C1=O` [Example 4b, Sodium 6β[D,2(4-ethyl-2,3-dioxopiperazine-1-carbonylamino)]phenylacetamidobisnorpenicillanate], for which the MIC in [1] was 0.5 µg/mL; in experiment [2] it was 5 µg/mL; in experiment [3], > 100 µg/mL; in [4], > 100 µg/mL; in [5] (AGAR), 1 µg/mL; in [5] (BROTH), 0.5 µg/mL. Moreover, the MIC in experiment [6] is 0.5 µg/mL; in experiment [7], 0.2 µg/mL; in experiment [8], 10 µg/mL; in experiment [9] it was > 100 µg/mL; in [10] (NCTC10418, AGAR), 1 µg/mL; in experiment [10] (NCTC10418, BROTH) it was 0.5 µg/mL. The MIC in experiment [11] is 0.1 µg/mL; in experiment [12] it was 50 µg/mL; in [13] (AGAR) it was 0.2 µg/mL; in experiment [13] (BROTH), > 10 µg/mL; in experiment [14], 0.2 µg/mL; in experiment [15], 0.5 µg/mL. The MIC was 10 µg/mL in experiment [16] (AGAR, Ps aeruginosa 10662); 5 µg/mL in [16] (AGAR, Ps aeruginosa 10662 10^-2); 10 µg/mL in experiment [16] (BROTH, Ps aeruginosa 10662); 5 µg/mL in experiment [16] (BROTH, Ps aeruginosa 10662 10^-2); > 100 µg/mL in experiment [17].
